This note sets out measurements from patent US11147272B2, “Pyridone compounds and agricultural and horticultural fungicides comprising the same as active ingredients” (MITSUI CHEMICALS AGRO, INC., priority 2017, dated 2021).

The test system of test [1] is Magnaporthe grisea. Briefly: whole plant or invertebrate. In kind it is in vivo. Conditions: for Test A control value class: class of control value.
Test [2] relates to Alternaia brassicicola. Briefly: Test Example C: Alternaria sooty spot on cabbage. It counts as in vivo. The text has this:
Seeds of a test plant (cabbage variety: Shikidori) were planted and cultivated until the cotyledons extended.
<Control Value> Control value=100{1−(n/3)}

In test [3] the test system is Puccinia recondita. The test is described as follows: Test Example E: Brown rust on wheat. In kind it is in vivo.
Test [4] concerns Phytophthora infestans. The test is described as follows: whole plant or invertebrate. In kind it is in vivo. To be noted: for Test F control value class: class of control value.
Test [5] has as its system Botrytis cinerea. Briefly: Test Example B: Gray mold on tomato. Conditions: for Test B control value class: class of control value.
The test system of test [6] is Plasmopara viticola. Briefly: Test Example G: Downy mildew on vine. Conditions: for Test G control value class: Downy mildew on vine (Neomuscat), 2.5 ml/pot, assessed 7 to 10 days after inoculation; for Test G control value: 7 to 10 days after inoculation.
Test [7] concerns Colletotrichum orbiculare. The test is described as follows: Test Example H: Anthracnose on cucumber. Conditions: for Test H control value class: Anthracnose on cucumber (Sagami Hanjiro), 2.5 ml/pot, assessed 6 to 10 days after inoculation; for Test H control value: 6 to 10 days after inoculation.
The test system of test [8] is Blumeria graminis f. sp. hordei. The test is described as follows: Test Example D: Powdery mildew on barley. To be noted: for Test D control value class: class of control value.
The mark [9] stands for this setting: Alternaria sooty spot on cabbage, class of control value.
The mark [10] stands for this setting: Brown rust on wheat, class of control value.
The mark [11] stands for this setting: Blast on rice, control value class.
The mark [12] stands for this setting: Alternaria sooty spot on cabbage, control value class.
[13] abbreviates: Brown rust on wheat, control value class.
Setting [14] is: Late blight on tomato, control value class.
Setting [15] is: Gray mold on tomato, control value class.
Setting [16] is: Downy mildew on vine, 250 ppm spray.
[17] abbreviates: Anthracnose on cucumber, 250 ppm spray.
[18] abbreviates: Powdery mildew on barley, control value class.
The mark [19] stands for this setting: 250 ppm drug solution sprayed on test plant.

On to `CCn1c(-c2c(F)cc(OC)cc2F)c(CN(C)C)cc(Cl)c1=O` [compound 92], for which the “Test A control value class” value in test [1] (Blast on rice) is listed as “H (more than 50% control value)”. In addition, the “Test C control value class” value in test [2] (setting [9]) is “H (more than 50% control value)”. The “Test E control value class” value in test [3] (setting [10]) is listed as “H (more than 50% control value)”. In addition, the “Test F control value class” value in test [4] (Late blight on tomato) is recorded as “L (50% or less control value)”. The “Test B control value class” value in test [5] (Gray mold on tomato) is “L (50% or less control value)”. For the same compound, the “Test G control value class” value in test [6] (250 ppm spray) is given as “L (50% or less control value)”. Moreover, the “Test H control value class” value in test [7] (250 ppm spray) was “H (more than 50% control value)”. The “Test D control value class” value in test [8] (Powdery mildew on barley) is “L (50% or less control value)”.

On to `CCn1c(-c2c(F)cccc2F)c(C)cc(Cl)c1=O` [Compound No. 2, 3-chloro-6-(2,6-difluorophenyl)-1-ethyl-5-methylpyridin-2(1H)-one], for which the pest or weed control at 250 µg/mL is over 50% in test [1] (Pyricularia oryzae, in Oryza sativa, read-out: Test A control value class); under 50% in test [2] (Brassica oleracea, topical, Alternaria sooty spot on cabbage, class of control value, read-out: Test C control value class); under 50% in test [3] (Puccinia recondita, topical, Brown rust on wheat, class of control value, read-out: Test E control value class); over 50% in test [4] (Phytophthora infestans, in Solanum lycopersicum, topical, read-out: Test F control value class); under 50% in test [5] (Botrytis cinerea, in Solanum lycopersicum, topical, read-out: Test B control value class); over 50% in test [8] (Blumeria graminis, in Hordeum vulgare, topical, read-out: Test D control value class). Also, the pest or weed control at 250 ppm in test [6] (Plasmopara viticola, topical, read-out: Test G control value class) is under 50%; in test [7] (Colletotrichum orbiculare, in Cucumis sativus, topical, read-out: Test H control value class), over 50%.

Take `CCCOc1ccc(-c2c(CC(C)C)cc(Cl)c(=O)n2CC)c(F)c1` [compound 126]: the “Test A control value class” value in test [1] (Blast on rice) is listed as “L (50% or less control value)”. Besides, in test [2] (setting [9]), the “Test C control value class” value is “H (more than 50% control value)”. Moreover, the “Test E control value class” value in test [3] (setting [10]) is on record as “H (more than 50% control value)”. Moreover, the “Test F control value class” value in test [4] (Late blight on tomato) is given as “L (50% or less control value)”. In addition, in test [5] (Gray mold on tomato), the “Test B control value class” value was “H (more than 50% control value)”. Further, the “Test G control value class” value in test [6] (250 ppm spray) was “H (more than 50% control value)”. Moreover, in test [7] (250 ppm spray), the “Test H control value class” value is reported as “H (more than 50% control value)”. Also, in test [8] (Powdery mildew on barley), the “Test D control value class” value is “H (more than 50% control value)”.

`CCc1ccc(=O)n(C)c1-c1ccc(F)cc1Cl` [compound 314]: the “Test A control value” in test [1] (setting [11]) is reported as “L (50% or less control value)”. The “Test C control value” in test [2] (setting [12]) is given as “L (50% or less control value)”. Moreover, in test [3] (setting [13]), the “Test E control value” is recorded as “H (more than 50% control value)”. For the same compound, in test [4] (setting [14]), the “Test F control value” is listed as “L (50% or less control value)”. In addition, in test [5] (setting [15]), the “Test B control value” was “L (50% or less control value)”. Moreover, the “Test G control value” in test [6] (setting [16]) is given as “L (50% or less control value)”. In addition, the “Test H control value” in test [7] (setting [17]) was “L (50% or less control value)”. In test [8] (setting [18]), the “Test D control value” was “H (more than 50% control value)”.

For the compound `CCn1c(-c2c(F)cc(F)cc2F)c(C(C)(C)O)cc(Cl)c1=O` [compound 150], the “Test A control value class” value in test [1] (Blast on rice) is on record as “H (more than 50% control value)”. The “Test C control value class” value in test [2] (setting [9]) is on record as “H (more than 50% control value)”. For the same compound, the “Test E control value class” value in test [3] (setting [10]) is listed as “H (more than 50% control value)”. Also, the “Test F control value class” value in test [4] (Late blight on tomato) is “L (50% or less control value)”. The “Test B control value class” value in test [5] (Gray mold on tomato) is listed as “H (more than 50% control value)”. Besides, in test [6] (250 ppm spray), the “Test G control value class” value was “H (more than 50% control value)”. Besides, the “Test H control value class” value in test [7] (250 ppm spray) is on record as “H (more than 50% control value)”. Also, the “Test D control value class” value in test [8] (Powdery mildew on barley) is reported as “H (more than 50% control value)”.

As to `COc1cc(F)c(-c2c(C(C)(C)C)cc(Cl)c(=O)n2C)c(F)c1` [compound 79], the “Test A control value class” value in test [1] (Blast on rice) was “H (more than 50% control value)”. The “Test C control value class” value in test [2] (setting [9]) is listed as “H (more than 50% control value)”. Besides, in test [3] (setting [10]), the “Test E control value class” value was “H (more than 50% control value)”. In addition, in test [4] (Late blight on tomato), the “Test F control value class” value is “L (50% or less control value)”. For the same compound, the “Test B control value class” value in test [5] (Gray mold on tomato) is on record as “H (more than 50% control value)”. In addition, in test [6] (250 ppm spray), the “Test G control value class” value is recorded as “L (50% or less control value)”. For the same compound, the “Test H control value class” value in test [7] (250 ppm spray) is recorded as “H (more than 50% control value)”. The “Test D control value class” value in test [8] (Powdery mildew on barley) was “H (more than 50% control value)”.

Turning to `CCCCCc1cc(Br)c(=O)n(CC)c1-c1ccc(F)cc1Cl` [compound 210], the “Test A control value” in test [1] (setting [11]) is listed as “H (more than 50% control value)”. Further, the “Test C control value” in test [2] (setting [12]) is “H (more than 50% control value)”. The “Test E control value” in test [3] (setting [13]) was “H (more than 50% control value)”. Further, in test [4] (setting [14]), the “Test F control value” is recorded as “L (50% or less control value)”. For the same compound, the “Test B control value” in test [5] (setting [15]) is reported as “H (more than 50% control value)”. The “Test G control value” in test [6] (setting [16]) is “L (50% or less control value)”. Besides, the “Test H control value” in test [7] (setting [17]) is recorded as “H (more than 50% control value)”. In addition, the “Test D control value” in test [8] (setting [18]) was “H (more than 50% control value)”.

As for `CCCc1cc(Br)c(=O)n(CC(F)F)c1-c1c(F)cccc1F` [compound 493], the “Test A control value” in test [1] (setting [19]) is listed as “H (more than 50% control value)”. Also, the “Test C control value” in test [2] (setting [19]) is reported as “H (more than 50% control value)”. In addition, in test [3] (setting [19]), the “Test E control value” was “H (more than 50% control value)”. Also, in test [4] (setting [19]), the “Test F control value” is “L (50% or less control value)”. In addition, the “Test B control value” in test [5] (setting [19]) is “H (more than 50% control value)”. In addition, in test [6] (250 ppm drug solution sprayed (2.5 ml/pot), grape Neomuscat), the “Test G control value” is “H (more than 50% control value)”. The “Test H control value” in test [7] (250 ppm drug solution sprayed (2.5 ml/pot), cucumber Sagami Hanjiro) was “H (more than 50% control value)”. In addition, the “Test D control value” in test [8] (setting [19]) is reported as “H (more than 50% control value)”.

For the compound `C=C(c1cc(Cl)c(=O)n(CC)c1-c1c(F)cccc1F)C(C)C` [compound 197], in test [1] (setting [11]), the “Test A control value” is “H (more than 50% control value)”. In test [2] (setting [12]), the “Test C control value” is “H (more than 50% control value)”. Also, the “Test E control value” in test [3] (setting [13]) is “H (more than 50% control value)”. Moreover, the “Test F control value” in test [4] (setting [14]) is recorded as “L (50% or less control value)”. The “Test B control value” in test [5] (setting [15]) is recorded as “H (more than 50% control value)”. The “Test G control value” in test [6] (setting [16]) is “H (more than 50% control value)”. Besides, the “Test H control value” in test [7] (setting [17]) is on record as “H (more than 50% control value)”. In addition, the “Test D control value” in test [8] (setting [18]) is “H (more than 50% control value)”.

As to `CCN1C(=O)CCC(C)=C1c1ccc(F)cc1Cl` [compound 278], in test [1] (setting [11]), the “Test A control value” is “L (50% or less control value)”. In addition, in test [2] (setting [12]), the “Test C control value” is on record as “L (50% or less control value)”. In addition, the “Test E control value” in test [3] (setting [13]) was “L (50% or less control value)”. In addition, in test [4] (setting [14]), the “Test F control value” is “H (more than 50% control value)”. Moreover, in test [5] (setting [15]), the “Test B control value” is listed as “L (50% or less control value)”. The “Test G control value” in test [6] (setting [16]) was “L (50% or less control value)”. For the same compound, the “Test H control value” in test [7] (setting [17]) is “H (more than 50% control value)”. Further, the “Test D control value” in test [8] (setting [18]) was “L (50% or less control value)”.

For the compound `CCCOC(C)(c1cc(Cl)c(=O)n(CC)c1-c1ccc(OC)cc1)C(C)C` (stereo not shown) [compound 248], the “Test A control value” in test [1] (setting [11]) is given as “H (more than 50% control value)”. Also, in test [2] (setting [12]), the “Test C control value” was “L (50% or less control value)”. For the same compound, the “Test E control value” in test [3] (setting [13]) is “L (50% or less control value)”. Also, in test [4] (setting [14]), the “Test F control value” was “L (50% or less control value)”. Moreover, in test [5] (setting [15]), the “Test B control value” is given as “L (50% or less control value)”. For the same compound, the “Test G control value” in test [6] (setting [16]) is on record as “L (50% or less control value)”. Moreover, the “Test H control value” in test [7] (setting [17]) is reported as “L (50% or less control value)”. In addition, the “Test D control value” in test [8] (setting [18]) is listed as “L (50% or less control value)”.
